Results from ChEMBL document CHEMBL3430912, “GSK Tres Cantos Anti-Kinetoplastid Screening (TCAKS) Data”.

Columns and labels:
[1] = system: Trypanosoma cruzi; assay: GSK_TCAKS: pIC50 Trypanosoma cruzi viability assay using beta-GAL activity. This assay was run at single shot at 5uM compound concentration per well. The biological reagents consisted of NIH-3T3 host cells and trypomastigotes parasitic cells; both cell types were set to a 3.3 * 10^5 cells/mL dilution in assay DMEM by means of a CASY cell counter device using a 60um capillary. 6 uL of the mixture were dispensed per well (about 1 * 10^3 host-cells and 1 * 10^3 parasites) with a Multidrop Combi dispenser. […] In all wells, the percentage of DMSO never exceeded 0.5%. Plates incubated for four days at 37C, 5% CO2. The substrate used for the assay fluorescence intensity (FLINT) readout was resorufin-beta-D-galactopiranoside (Sigma-Aldrich) at 5uM per well. It was diluted in PBS supplemented with the soft detergent Igepal (Fluka).; assay type: functional, organism-based, Mus musculus; conditions: Tulahuen, NIH3T3
[2] = system: Trypanosoma cruzi; assay: (§1) GSK_TCAKS: pIC50 Trypanosoma cruzi Imaging: Infected Cells. […] Cells were then washed once with PBS before infection. T. cruzi trypomastigotes, collected at days 5 to 8 after infection from LLC-MK2 parasite infected cultures, were allowed to swim out for 4h at 37C from a centrifuged pellet (2,500 rpm/10 min/room temperature). Trypomastigotes were then collected and counted in a CASY Cell Counter. Trypomastigotes, in supplemented DMEM, were added to H9c2 cultures in a multiplicity of infection of 1 and incubated for 18 h. Cells were washed once with PBS before incubation of the infected H9c2 monolayer with trypsin (Life-Technologies) to detach cells from the flask. Cells were counted in a CASY Cell Counter using a 150 um capillary and their density set at 5 * 10^4 cells per mL in supplemented assay DMEM. Infected H9c2 were dispensed into 384-well poly-lysine coated assay plates at 50uL per well using a Multidrop Combi dispenser. After seeding them, the plates were incubated at 37C, 5% CO2 for 72h. Cultures were then fixed and stained by addition of 50 uL of a solution containing 8% formaldehyde and 4 uM DRAQ5 DNA dye (BioStatus, UK) per well. […] Five images were collected per well for reliable statistical analysis. Automated image analysis was performed with a script developed on Acapella High Content Imaging and Analysis Software (PerkinElmer). Output: percentage of infected cells per well as a second infection marker.; assay type: functional, organism-based, Rattus norvegicus; conditions: H9c2, 4 h
[3] = system: Trypanosoma cruzi; assay: GSK_TCAKS: pIC50 Trypanosoma cruzi Imaging: Amastigotes/Cell. […] Cells were then washed once with PBS before infection. T. cruzi trypomastigotes, collected at days 5 to 8 after infection from LLC-MK2 parasite infected cultures, were allowed to swim out for 4h at 37C from a centrifuged pellet (2,500 rpm/10 min/room temperature). Trypomastigotes were then collected and counted in a CASY Cell Counter. Trypomastigotes, in supplemented DMEM, were added to H9c2 cultures in a multiplicity of infection of 1 and incubated for 18 h. Cells were washed once with PBS before incubation of the infected H9c2 monolayer with trypsin (Life-Technologies) to detach cells from the flask. Cells were counted in a CASY Cell Counter using a 150 um capillary and their density set at 5 * 10^4 cells per mL in supplemented assay DMEM. Infected H9c2 were dispensed into 384-well poly-lysine coated assay plates at 50uL per well using a Multidrop Combi dispenser. After seeding them, the plates were incubated at 37C, 5% CO2 for 72h. Cultures were then fixed and stained by addition of 50 uL of a solution containing 8% formaldehyde and 4 uM DRAQ5 DNA dye (BioStatus, UK) per well. […] Five images were collected per well for reliable statistical analysis. Automated image analysis was performed with a script developed on Acapella High Content Imaging and Analysis Software (PerkinElmer). Output: number of amastigotes per cell as infection level measurement.; assay type: functional, organism-based, Rattus norvegicus; conditions: H9c2, 4 h
[4] = system: Trypanosoma cruzi; assay: as §1, with “H2C9” for “Trypanosoma cruzi”, “H9c2 Host Cardiomyocytes.” for “Infected Cells.”, “Number” for “percentage”, “H9c2 Host Cardiomyocytes nuclei to determine drug-related cytotoxicity.” for “infected cells per well as a second infection marker.”; assay type: functional, organism-based, Rattus norvegicus; conditions: H9c2, 4 h
[5] = system: Leishmania donovani; assay: GSK_TCAKS: pIC50 Leishmania donovani viability assay using fluorescence intensity. Assay plates (1536-well) were prepared by adding 30nL per well of compound. For single shot assay, the final compound concentration was 5uM. […] Briefly, eGFP LdBOB axenic amastigotes were harvested, fixed and counted in a CASY cell counter (Roche-Applied Science). A final concentration of 1.5 * 10^5 cells per well were prepared in amastigote media containing 500 U/mL penicillin/streptomycin (Invitrogen) and 6uL was dispensed to each experimental well using a Multidrop Combi dispenser (Thermo Scientific). 6uL of assay media was dispensed to control columns used as reference for 100% compound response. Following incubation for 72 h at 37C, 5% CO2, 2 uL of resazurin was added to each well at a final concentration of 0.5 mM in phosphate buffered saline (PBS) with IGEPAL (Sigma-Aldrich), 0.05% (v/v).; assay type: functional, organism-based
[6] = system: Leishmania donovani; assay: (§2) GSK_TCAKS: pIC50 Leishmania donovani Imaging: Infected Macrophages. Assay plates (384-well) were prepared by adding 250nL of compound to each well. For single shot assay, the final compound concentration was 5 uM. […] Automated image analysis was performed with a script developed on Acapella High Content Imaging and Analysis Software (PerkinElmer). Output: Percent of infected macrophage cells were reported for each well.; assay type: functional, organism-based, Homo sapiens; conditions: THP-1
[7] = system: Leishmania donovani; assay: as §2, with “Amastigotes/Macrophages.” for “Infected Macrophages.”, “Average number” for “Percent”, “amastigotes per” for “infected”, “cell” for “cells”; assay type: functional, organism-based, Homo sapiens; conditions: THP-1
[8] = system: Leishmania donovani; assay: as §2, with “THP-1 Host” for “Infected”, “THP-1 cell count” for “Percent of infected macrophage cells”; assay type: functional, organism-based, Homo sapiens
[9] = system: Trypanosoma brucei brucei; assay: GSK_TCAKS: pIC50 Trypanosoma brucei viability assay using fluorescence intensity. Assay plates (1536-well) were prepared by dispensing 25nL of compound solution per well using an Echo acoustic dispenser (Labcyte).; assay type: functional, organism-based; conditions: Lister 427, 2 h
[10] = system: Trypanosoma brucei brucei; assay: GSK_TCAKS: pIC50 Trypanosoma brucei viability assay using luminiscence. Assay plates (1536-well) were prepared. T. brucei cultures were harvested and counted in a CASY cell counter. A parasite suspension was prepared at a final concentration of 5 * 10^4 cells/mL in complete HMI9 medium and 6uL was dispensed to all wells containing compounds using a Multidrop Combi dispenser. 6uL of HMI9 media with 0.4% DMSO were dispensed to control columns. Plates were incubated for 24 h at 37C, 5% CO2 then tempered for 10 min at room temperature. ATP content was quantified by adding 4 uL of CellTiter-Glo Reagent (Promega) according to the manufacturer's instructions. Luminescence was measured using a ViewLux.; assay type: functional, organism-based; conditions: Lister 427, CASY
[11] = GSK_TCAKS: pIC50 HepG2 human cell line viability assay using luminiscence. […] Seeding density was checked to ensure that new mono-layers were not more than 50% confluent at the time of harvesting. Cell suspension was added to 500 mL of the same medium at a final density of 1.2 * 10^5 cells/mL. This cell suspension was dispensed (25 uL, 3000 cells per well) into 384-well clear-bottom plates using a Multidrop Combi dispenser. Prior to addition of the cell suspension, the screening compounds (250 nL) were pre-dispensed into the plates with an Echo liquid handler. Plates were incubated for 48 h at 37C, 5% CO2. After incubation, plates equilibrated at room temperature for 30 min before proceeding to develop the luminescent signal. The signal developer, CellTiter-Glo Reagent, was allowed to equilibrate at room temperature for 30 min and added to the plates (25uL per well) using a Multidrop Combi dispenser. Plates were left for 10 min at room temperature for stabilization and then read using a ViewLux.; assay type: toxicity, cell-based
[12] = system: NIH3T3; assay: GSK_TCAKS: pIC50 NIH 3T3 cell line viability assay using luminiscence. Tissue culture surface treated assay plates (1536-well) were used. […] The 100% cells survival control was determined exposing the host-cells to a 0.5% DMSO concentration, whereas the 100% toxicity control was achieved by seeding the cells in presence of Amphotericin B at 50uM. Plates were incubated for four days at 37C, 5% CO2. The assay readout was developed by addition of 5uL of CellTiter-Glo Reagent following the manufacturer's instructions. Luminiscence was measured using a ViewLux.; assay type: functional, cell-based; conditions: Mus musculus, NIH3T3, 96 h
[13] = molecular target: Sterol 14-alpha demethylase (Trypanosoma cruzi (strain CL Brener), UniProt Q7Z1V1); assay: GSK_TCAKS: pIC50 CYP51 from Trypanosoma cruzi.; assay type: functional
Chain of Sterol 14-alpha demethylase (Q7Z1V1 whole entry): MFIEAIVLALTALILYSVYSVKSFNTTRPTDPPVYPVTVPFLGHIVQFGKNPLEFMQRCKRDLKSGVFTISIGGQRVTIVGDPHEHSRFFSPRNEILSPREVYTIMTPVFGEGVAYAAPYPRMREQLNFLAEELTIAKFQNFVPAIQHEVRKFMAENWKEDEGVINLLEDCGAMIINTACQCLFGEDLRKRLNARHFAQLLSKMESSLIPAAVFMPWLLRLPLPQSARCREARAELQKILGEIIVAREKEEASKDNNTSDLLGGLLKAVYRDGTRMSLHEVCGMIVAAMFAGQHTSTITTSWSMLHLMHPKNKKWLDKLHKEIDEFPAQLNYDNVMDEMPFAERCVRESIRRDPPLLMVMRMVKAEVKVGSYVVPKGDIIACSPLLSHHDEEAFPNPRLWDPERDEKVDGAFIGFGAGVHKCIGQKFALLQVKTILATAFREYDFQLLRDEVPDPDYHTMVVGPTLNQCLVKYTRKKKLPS

Row | Structure (SMILES) | IC50 [1] [µM] | IC50 [2] [µM] | IC50 [3] [µM] | IC50 [4] [µM] | IC50 [5] [µM] | IC50 [6] [µM] | IC50 [7] [µM] | IC50 [8] [µM] | IC50 [9] [µM] | IC50 [10] [µM] | IC50 at 48 h [11] [µM] | IC50 [12] [µM] | IC50 [13] [µM]
1 | O=C(NCC(c1cccnc1)N1CCc2ccccc2C1)C(=O)Nc1cccc(Cl)c1 (stereo unspecified) | 0.2 | 0.0794 | 0.0631 | 25.1 | 1.26 | > 50.1 | > 50.1 | > 50.1 | 15.8 | 20 | > 100 | 25.1 | 0.0631
2 | COc1ccccc1C=CCN1C[C@H]2CCC[C@@H](C1)C2(O)c1cccnc1 (stereo partly specified) | 0.0501 | 0.0398 | 0.0398 | > 50.1 | > 50.1 | > 50.1 | 31.6 | 39.8 | > 39.8 | > 39.8 | > 100 | 31.6 | 0.126
3 | COc1ccc(C(=O)Nc2cc(C(F)(F)F)ccc2N2CCOCC2)c(OC)c1 | 1 | 0.794 | 0.316 | > 50.1 | 5.01 | 10 | 7.94 | 12.6 | 10 | 25.1 | > 100 | 31.6 | > 100
4 | COc1ccc(NS(=O)(=O)c2cc(NC(=O)Cc3ccc(C)cc3)ccc2N2CCOCC2)cc1 | 2 | 5.01 | 2.51 | > 50.1 | 39.8 | > 50.1 | > 50.1 | > 50.1 | 5.01 | 7.94 | > 100 | 25.1 | > 100
5 | NC(=O)c1ccccc1Nc1nc(NC2CCCCC2)nc2[nH]ccc12 | 1 | 1 | 1 | 25.1 | 20 | 12.6 | 12.6 | 10 | 0.501 | 10 | 20 | 25.1 | > 100
6 | CCCCn1nnnc1CSc1nc(C)cc(C)c1C#N | 0.316 | 0.2 | 0.1 | > 50.1 | 1.26 | 3.98 | 3.16 | > 50.1 | > 39.8 | > 39.8 | > 100 | > 50.1 | 50.1
7 | O=C(CSc1ccc(F)cc1)N[C@@H](Cc1c[nH]cn1)C(=O)NCCc1ccccc1 | 0.447 | 0.501 | 0.501 | > 50.1 | > 50.1 | > 50.1 | > 50.1 | > 50.1 | > 39.8 | > 39.8 | > 100 | 12.6 | 0.0794
